Several values for one entry are separate records, joined by “and”; a condition that tells them apart may be missing. Equal entries are not always repeated.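 Grown in 96-well plates, cells were treated for 48 hours with each compound at five concentrations. Insufficient inhibition: endpoint recorded as highest concentration tested. Here, GI50 denotes the concentration required for 50% inhibition of growth. TGI: total growth inhibition.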
How the values were obtained:
Assay in all cases: NCI anticancer screen, dose series, 48 h
786-0 renal = test system: 786-0 renal
A498 renal = test system: A498 renal
A549 NSCLC = test system: A549 NSCLC
ACHN renal = test system: ACHN renal
BT-549 breast = test system: BT-549 breast
CAKI-1 renal = test system: CAKI-1 renal
CCRF-CEM leukemia = test system: CCRF-CEM leukemia
COLO 205 colon = test system: COLO 205 colon
DU-145 prostate = test system: DU-145 prostate
EKVX NSCLC = test system: EKVX NSCLC
HCC-2998 colon = test system: HCC-2998 colon
HCT-116 colon = test system: HCT-116 colon
HCT-15 colon = test system: HCT-15 colon
HL-60(TB) leukemia = test system: HL-60(TB) leukemia
HOP-62 NSCLC = test system: HOP-62 NSCLC
HS 578T breast = test system: HS 578T breast
HT29 colon = test system: HT29 colon
IGROV1 ovarian = test system: IGROV1 ovarian
K-562 leukemia = test system: K-562 leukemia
KM12 colon = test system: KM12 colon
LOX IMVI melanoma = test system: LOX IMVI melanoma
M14 melanoma = test system: M14 melanoma
MALME-3M melanoma = test system: MALME-3M melanoma
MCF7 breast = test system: MCF7 breast
MDA-MB-231 breast = test system: MDA-MB-231 breast
MDA-MB-435 = test system: MDA-MB-435
MDA-N = test system: MDA-N
MOLT-4 leukemia = test system: MOLT-4 leukemia
NCI-H226 lung = test system: NCI-H226 lung
NCI-H23 lung = test system: NCI-H23 lung
NCI-H460 lung = test system: NCI-H460 lung
NCI-H522 lung = test system: NCI-H522 lung
NCI/ADR-RES ovarian = test system: NCI/ADR-RES ovarian
OVCAR-3 ovarian = test system: OVCAR-3 ovarian
OVCAR-4 ovarian = test system: OVCAR-4 ovarian
OVCAR-5 ovarian = test system: OVCAR-5 ovarian
OVCAR-8 ovarian = test system: OVCAR-8 ovarian
PC-3 prostate = test system: PC-3 prostate
RPMI-8226 leukemia = test system: RPMI-8226 leukemia
RXF 393 renal = test system: RXF 393 renal
SF-268 CNS = test system: SF-268 CNS
SF-295 CNS = test system: SF-295 CNS
SF-539 CNS = test system: SF-539 CNS
SK-MEL-2 melanoma = test system: SK-MEL-2 melanoma
SK-MEL-28 melanoma = test system: SK-MEL-28 melanoma
SK-MEL-5 melanoma = test system: SK-MEL-5 melanoma
SK-OV-3 ovarian = test system: SK-OV-3 ovarian
SN12C renal = test system: SN12C renal
SNB-19 CNS = test system: SNB-19 CNS
SNB-75 CNS = test system: SNB-75 CNS
SR leukemia = test system: SR leukemia
SW-620 colon = test system: SW-620 colon
T-47D breast = test system: T-47D breast
TK-10 renal = test system: TK-10 renal
U251 CNS = test system: U251 CNS
UACC-257 melanoma = test system: UACC-257 melanoma
UACC-62 melanoma = test system: UACC-62 melanoma
UO-31 renal = test system: UO-31 renal
HOP-92 NSCLC = test system: HOP-92 NSCLC

SMILES: CC[C@@]1(OC(=O)CN)C(=O)OCc2c1cc1n(c2=O)Cc2cc3c(N)c4c(cc3nc2-1)OCO4
- GI50 (786-0 renal): < 0.1 nM
- TGI (786-0 renal): 9.3 nM
- GI50 (A498 renal): 2.26 nM
- TGI (A498 renal): 66.1 nM
- GI50 (A549 NSCLC): 0.195 nM
- TGI (A549 NSCLC): 233 nM and 1010 nM
- GI50 (ACHN renal): < 0.1 nM
- TGI (ACHN renal): 104 nM and 15.2 nM
- GI50 (BT-549 breast): 240 nM
- GI50 (CAKI-1 renal): < 0.1 nM
- GI50 (CCRF-CEM leukemia): < 0.1 nM
- TGI (CCRF-CEM leukemia): 551 nM
- GI50 (COLO 205 colon): 41.9 nM and 110 nM
- TGI (COLO 205 colon): 961 nM
- GI50 (DU-145 prostate): < 0.1 nM
- GI50 (EKVX NSCLC): 80.8 nM
- GI50 (HCC-2998 colon): 11.6 nM
- TGI (HCC-2998 colon): 969 nM
- GI50 (HCT-116 colon): 0.318 nM
- TGI (HCT-116 colon): > 100 µM
- GI50 (HCT-15 colon): 40.9 nM and 147 nM
- TGI (HCT-15 colon): > 100 µM
- GI50 (HL-60(TB) leukemia): < 0.1 nM
- TGI (HL-60(TB) leukemia): 111 nM
- GI50 (HOP-62 NSCLC): < 0.1 nM
- TGI (HOP-62 NSCLC): 205 nM and 250 nM
- GI50 (HS 578T breast): 232 nM
- TGI (HT29 colon): > 100 µM
- GI50 (IGROV1 ovarian): 18 nM
- TGI (IGROV1 ovarian): 342 nM
- GI50 (K-562 leukemia): 2.54 nM
- TGI (K-562 leukemia): 508 nM
- GI50 (KM12 colon): 13.6 nM and 19.2 nM
- TGI (KM12 colon): 182 nM and 1270 nM
- GI50 (LOX IMVI melanoma): < 0.1 nM
- GI50 (M14 melanoma): < 0.1 nM
- TGI (M14 melanoma): 13.9 nM
- GI50 (MALME-3M melanoma): 12.4 nM
- TGI (MALME-3M melanoma): 889 nM and 221 nM
- GI50 (MCF7 breast): < 0.1 nM
- GI50 (MDA-MB-231 breast): 87.3 nM and 300 nM
- TGI (MDA-MB-231 breast): > 100 µM
- GI50 (MDA-MB-435): 3.28 nM and 18.3 nM
- GI50 (MDA-N): 12.7 nM
- TGI (MDA-N): > 100 µM
- GI50 (MOLT-4 leukemia): < 0.1 nM
- TGI (MOLT-4 leukemia): 146 nM
- GI50 (NCI-H226 lung): < 0.1 nM
- TGI (NCI-H226 lung): 109 nM and 27.9 nM
- GI50 (NCI-H23 lung): < 0.1 nM
- GI50 (NCI-H460 lung): < 0.1 nM
- GI50 (NCI-H522 lung): 1.15 nM
- TGI (NCI-H522 lung): 146 nM
- GI50 (NCI/ADR-RES ovarian): 0.145 nM
- TGI (NCI/ADR-RES ovarian): 19.3 nM
- GI50 (OVCAR-3 ovarian): 35.2 nM and 11.6 nM
- TGI (OVCAR-3 ovarian): 481 nM and 336 nM
- GI50 (OVCAR-4 ovarian): 50.7 nM and 38.6 nM
- TGI (OVCAR-4 ovarian): 356 nM and 658 nM
- GI50 (OVCAR-5 ovarian): 6.5 nM and 42.7 nM
- GI50 (OVCAR-8 ovarian): 0.109 nM
- TGI (OVCAR-8 ovarian): 107 nM and 12.8 nM
- GI50 (PC-3 prostate): 36.1 nM and 32.2 nM
- TGI (PC-3 prostate): > 100 µM
- GI50 (RPMI-8226 leukemia): 2.61 nM
- TGI (RPMI-8226 leukemia): 719 nM
- GI50 (RXF 393 renal): 4.66 nM
- TGI (RXF 393 renal): 158 nM
- GI50 (SF-268 CNS): < 0.1 nM
- TGI (SF-268 CNS): 125 nM and 183 nM
- GI50 (SF-295 CNS): < 0.1 nM
- GI50 (SF-539 CNS): < 0.1 nM
- TGI (SF-539 CNS): 0.945 nM
- GI50 (SK-MEL-2 melanoma): 22.6 nM
- TGI (SK-MEL-2 melanoma): 327 nM
- GI50 (SK-MEL-28 melanoma): 40.9 nM and 119 nM
- TGI (SK-MEL-28 melanoma): > 100 µM
- GI50 (SK-MEL-5 melanoma): 0.182 nM
- TGI (SK-MEL-5 melanoma): 139 nM
- GI50 (SK-OV-3 ovarian): 0.15 nM
- TGI (SK-OV-3 ovarian): 0.148 µM
- GI50 (SN12C renal): < 0.1 nM
- GI50 (SNB-19 CNS): 0.124 nM
- TGI (SNB-19 CNS): > 100 µM
- GI50 (SNB-75 CNS): 0.442 nM
- TGI (SNB-75 CNS): 0.824 µM
- GI50 (SR leukemia): < 0.1 nM
- TGI (SR leukemia): 159 nM
- GI50 (SW-620 colon): 2.43 nM
- TGI (SW-620 colon): > 100 µM
- TGI (T-47D breast): > 100 µM
- GI50 (TK-10 renal): 16.7 nM and 104 nM
- TGI (TK-10 renal): > 100 µM
- GI50 (U251 CNS): < 0.1 nM
- TGI (U251 CNS): 18.6 nM and 57.1 nM
- GI50 (UACC-257 melanoma): 15.8 nM
- TGI (UACC-257 melanoma): 228 nM
- GI50 (UACC-62 melanoma): < 0.1 nM
- TGI (UACC-62 melanoma): 24.6 nM
- GI50 (UO-31 renal): < 0.1 nM

SMILES: O=C1CSC(/C=C/c2ccccc2)N1c1ccc(-n2c(-c3ccccc3)nc3ccccc3c2=O)cc1 (stereo unspecified)
- TGI (786-0 renal): > 100000 nM
- TGI (A498 renal): > 100000 nM
- TGI (A549 NSCLC): > 100000 nM
- TGI (BT-549 breast): > 100 µM
- TGI (CAKI-1 renal): > 100 µM
- TGI (CCRF-CEM leukemia): > 100000 nM
- TGI (COLO 205 colon): > 100000 nM
- TGI (DU-145 prostate): > 100 µM
- TGI (EKVX NSCLC): > 100 µM
- TGI (HCC-2998 colon): > 100000 nM
- TGI (HCT-116 colon): > 100 µM
- TGI (HCT-15 colon): > 100 µM
- TGI (HL-60(TB) leukemia): > 100000 nM
- TGI (HOP-62 NSCLC): > 100000 nM
- TGI (HOP-92 NSCLC): > 100 µM
- TGI (HS 578T breast): > 100 µM
- TGI (HT29 colon): > 100 µM
- TGI (IGROV1 ovarian): > 100000 nM
- TGI (K-562 leukemia): > 100000 nM
- TGI (KM12 colon): > 100000 nM
- TGI (LOX IMVI melanoma): > 100 µM
- TGI (M14 melanoma): > 100000 nM
- TGI (MALME-3M melanoma): > 100000 nM
- TGI (MCF7 breast): > 100 µM
- TGI (MDA-MB-231 breast): > 100 µM
- TGI (MDA-MB-435): > 100 µM
- TGI (MDA-N): > 100 µM
- TGI (MOLT-4 leukemia): > 100000 nM
- TGI (NCI-H226 lung): > 100000 nM
- TGI (NCI-H23 lung): > 100 µM
- TGI (NCI-H460 lung): > 100 µM
- TGI (NCI-H522 lung): > 100000 nM
- TGI (NCI/ADR-RES ovarian): > 100000 nM
- TGI (OVCAR-3 ovarian): > 100000 nM
- TGI (OVCAR-4 ovarian): 86200 nM
- TGI (OVCAR-5 ovarian): > 100 µM
- TGI (OVCAR-8 ovarian): > 100000 nM
- TGI (PC-3 prostate): > 100 µM
- TGI (RPMI-8226 leukemia): > 100000 nM
- TGI (SF-268 CNS): > 100000 nM
- TGI (SF-295 CNS): > 100 µM
- TGI (SF-539 CNS): > 100000 nM
- TGI (SK-MEL-2 melanoma): > 100000 nM
- TGI (SK-MEL-28 melanoma): > 100 µM
- TGI (SK-MEL-5 melanoma): > 100000 nM
- TGI (SK-OV-3 ovarian): 69 µM
- TGI (SN12C renal): > 100 µM
- TGI (SNB-19 CNS): > 100 µM
- TGI (SNB-75 CNS): 90 µM
- TGI (SR leukemia): > 100000 nM
- TGI (T-47D breast): > 100 µM
- TGI (TK-10 renal): > 100 µM
- TGI (U251 CNS): > 100000 nM
- TGI (UACC-257 melanoma): > 100000 nM
- TGI (UACC-62 melanoma): > 100000 nM
- TGI (UO-31 renal): > 100 µM
